Measured values from the NIST ThermoML archive (doi:10.1016/j.tca.2010.04.013).

Legend:
[1] = relative permittivity at various frequencies (dimensionless); settings: 303.15 K; 101.3 kPa; Liquid; Frequency=1 MHz; capacitance measurements at 1 MHz
[2] = relative permittivity at various frequencies (dimensionless); xn = mol fraction of the nth substance listed; settings: 303.15 K, 101.3 kPa, Liquid, Frequency=1 MHz, capacitance measurements at 1 MHz

CNC=O [N-methylformamide]
Settings	relative permittivity
[1]	169.76

CNC=O [N-methylformamide] + CCO
[2]
Settings	relative permittivity
x2 = 0	169.76
x2 = 0.101	144.63
x2 = 0.202	123.72
x2 = 0.302	104.17
x2 = 0.402	85.99
x2 = 0.502	71.06
x2 = 0.602	57.8
x2 = 0.702	46.91
x2 = 0.802	37.6
x2 = 0.901	29.54

CNC=O [N-methylformamide] + OCCO
[2]
Settings	relative permittivity
x2 = 0	169.76
x2 = 0.105	139.93
x2 = 0.209	118.26
x2 = 0.312	102.12
x2 = 0.413	87.49
x2 = 0.514	76.46
x2 = 0.613	67.14
x2 = 0.711	59.59
x2 = 0.809	52.6
x2 = 0.905	46.26

CN(C)C=O [dimethylformamide]
Settings	relative permittivity
[1]	36.55

CN(C)C=O [dimethylformamide] + CCO
[2]
Settings	relative permittivity
x2 = 0	36.55
x2 = 0.087	35.57
x2 = 0.169	34.72
x2 = 0.249	33.96
x2 = 0.325	32.98
x2 = 0.399	32.16
x2 = 0.469	31.39
x2 = 0.537	30.57
x2 = 0.603	29.63
x2 = 0.666	28.78
x2 = 0.726	27.8
x2 = 0.785	27.05
x2 = 0.841	26.22
x2 = 0.896	25.39
x2 = 0.949	24.65

CN(C)C=O [dimethylformamide] + OCCO
Settings	relative permittivity
[2], x2 = 0	36.55

NC=O [formamide]
Settings	relative permittivity
[1]	106.14

NC=O [formamide] + CCO
[2]
Settings	relative permittivity
x2 = 0	106.14
x2 = 0.046	100.82
x2 = 0.095	95.19
x2 = 0.146	89.27
x2 = 0.199	82.58
x2 = 0.254	76.43
x2 = 0.312	70.03
x2 = 0.374	64.23
x2 = 0.438	57.92
x2 = 0.506	51.93
x2 = 0.577	46.28
x2 = 0.652	41.17
x2 = 0.732	36.15
x2 = 0.816	31.37
x2 = 0.905	27.6

NC=O [formamide] + OCCO
[2]
Settings	relative permittivity
x2 = 0	106.14
x2 = 0.048	103.75
x2 = 0.099	100.44
x2 = 0.151	96.49
x2 = 0.206	92.28
x2 = 0.263	88.7
x2 = 0.322	84.61
x2 = 0.384	80.3
x2 = 0.449	75.79
x2 = 0.517	70.99
x2 = 0.588	66.04
x2 = 0.662	61.55
x2 = 0.74	56.35
x2 = 0.823	51.05
x2 = 0.909	46.12
